Columns and labels:
[1] = target: T1, TR-β (Homo sapiens, UniProt P10828); assay: In vitro TR-β activity (in-house protocol); type: cell-based; settings: read-out: TR-β Fold Induction w.r.t T3(100 nm); for fold induction at 0.001 µM: Conc. 1 nM; for fold induction at 0.01 µM: Conc. 10 nM; for fold induction at 0.1 µM: Conc. 100 nM; for fold induction at 1 µM: Conc. 1000 nM
T1 sequence (P10828 1-461): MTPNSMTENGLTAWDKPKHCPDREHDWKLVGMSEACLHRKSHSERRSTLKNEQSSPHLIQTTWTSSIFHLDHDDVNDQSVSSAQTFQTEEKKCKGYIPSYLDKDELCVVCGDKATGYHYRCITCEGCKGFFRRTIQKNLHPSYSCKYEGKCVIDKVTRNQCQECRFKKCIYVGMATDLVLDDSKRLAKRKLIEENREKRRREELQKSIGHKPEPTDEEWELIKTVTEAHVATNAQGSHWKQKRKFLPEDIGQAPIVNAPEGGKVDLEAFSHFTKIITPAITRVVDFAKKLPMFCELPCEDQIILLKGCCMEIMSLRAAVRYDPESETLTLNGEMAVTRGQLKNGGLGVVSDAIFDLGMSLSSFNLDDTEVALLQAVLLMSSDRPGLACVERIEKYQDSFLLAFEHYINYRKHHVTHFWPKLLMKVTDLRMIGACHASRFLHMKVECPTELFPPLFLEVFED
Experimental: (§1) In vitro TR-α & TR-β activities were determined as per in-house protocols and the results of representative compounds are provided in tables 1 & 2 below as a proof of the efficacies of the novel class of compounds disclosed above.

[2] = target: T2, TR-α (Homo sapiens, UniProt P10827); assay: In vitro TR-α activity (in-house protocol); type: cell-based; settings: read-out: TR-α Fold Induction w.r.t T3(100 nm); for fold induction at 0.001 µM: Conc. 1 nM; for fold induction at 0.01 µM: Conc. 10 nM; for fold induction at 0.1 µM: Conc. 100 nM; for fold induction at 1 µM: Conc. 1000 nM
T2 sequence (P10827 1-410 isoform P10827-2): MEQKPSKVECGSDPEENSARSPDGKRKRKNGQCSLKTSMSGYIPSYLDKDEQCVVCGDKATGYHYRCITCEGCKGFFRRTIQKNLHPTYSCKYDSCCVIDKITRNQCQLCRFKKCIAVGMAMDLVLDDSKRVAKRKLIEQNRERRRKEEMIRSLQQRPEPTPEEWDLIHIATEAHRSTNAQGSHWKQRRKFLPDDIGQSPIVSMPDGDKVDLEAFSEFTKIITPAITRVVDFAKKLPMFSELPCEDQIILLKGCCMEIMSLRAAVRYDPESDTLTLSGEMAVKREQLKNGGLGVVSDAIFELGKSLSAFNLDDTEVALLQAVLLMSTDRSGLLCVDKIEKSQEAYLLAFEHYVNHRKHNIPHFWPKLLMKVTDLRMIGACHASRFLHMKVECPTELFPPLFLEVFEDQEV
Experimental: as §1

## CC(ON=Cc1cc(Br)c(Oc2ccc(O)c(-c3ccccc3)c2)c(Br)c1)C(=O)O (centres unmarked) [Example 11, 2-(((3,5-dibromo-4-((6-hydroxy-[1,1′-biphenyl]-3-yl)oxy)benzylidene)amino)oxy)propanoic acid]
[1]
  fold induction at 0.001 µM: 16.1
  fold induction at 0.01 µM: 39.3
  fold induction at 0.1 µM: 73.8
  fold induction at 1 µM: 65.3
[2]
  fold induction at 0.001 µM: 16.2
  fold induction at 0.01 µM: 32.8
  fold induction at 0.1 µM: 70.2
  fold induction at 1 µM: 49.4

## CC(C)c1cc(Oc2c(Br)cc(C=NOC(C)(C)C(=O)O)cc2Br)ccc1O [Example 12, 2-(((3,5-dibromo-4-(4-hydroxy-3-isopropylphenoxy)benzylidene)amino)oxy)-2-methylpropanoic acid]
[1]
  fold induction at 0.001 µM: 39
  fold induction at 0.01 µM: 65.4
  fold induction at 0.1 µM: 119
  fold induction at 1 µM: 67.4
[2]
  fold induction at 0.001 µM: 24
  fold induction at 0.01 µM: 59.9
  fold induction at 0.1 µM: 88.7
  fold induction at 1 µM: 110

## CCC(ON=Cc1cc(Br)c(Oc2ccc(O)c(C(C)C)c2)c(Br)c1)C(=O)O (centres unmarked) [Example 13, 2-(((3,5-dibromo-4-(4-hydroxy-3-isopropylphenoxy)benzylidene)amino)oxy)butanoic acid]
[1]
  fold induction at 0.001 µM: 23.1
  fold induction at 0.01 µM: 73.4
  fold induction at 0.1 µM: 86.7
  fold induction at 1 µM: 94.6
[2]
  fold induction at 0.001 µM: 29.6
  fold induction at 0.01 µM: 63.9
  fold induction at 0.1 µM: 76.8
  fold induction at 1 µM: 56.9

## CCC(C)c1cc(Oc2c(Br)cc(C=NOC(C)(C)C(=O)O)cc2Br)ccc1O (centres unmarked) [Example 15, 2-(((3,5-dibromo-4-(3-(sec-butyl)-4-hydroxyphenoxy)benzylidene)amino)oxy)-2-methyl propanoic acid]
[1]
  fold induction at 0.001 µM: 23
  fold induction at 0.01 µM: 84.3
  fold induction at 0.1 µM: 118
  fold induction at 1 µM: 72.3
[2]
  fold induction at 0.001 µM: 35.7
  fold induction at 0.01 µM: 77.7
  fold induction at 0.1 µM: 119
  fold induction at 1 µM: 123

## CC(ON=Cc1cc(Br)c(Oc2ccc(O)c(Cc3ccccc3)c2)c(Br)c1)C(=O)O (centres unmarked) [Example 16, 2-(((4-(3-benzyl-4-hydroxyphenoxy)-3,5-dibromobenzylidene)amino)oxy)propanoic acid]
[1]
  fold induction at 0.001 µM: 12
  fold induction at 0.01 µM: 31.7
  fold induction at 0.1 µM: 54.3
  fold induction at 1 µM: 70.5
[2]
  fold induction at 0.001 µM: 19.1
  fold induction at 0.01 µM: 29.4
  fold induction at 0.1 µM: 119
  fold induction at 1 µM: 161

## CCC(ON=Cc1cc(Br)c(Oc2ccc(O)c(Cc3ccccc3)c2)c(Br)c1)C(=O)O (centres unmarked) [Example 17, 2-(((4-(3-benzyl-4-hydroxyphenoxy)-3,5-dibromobenzylidene)amino)oxy)butanoic acid]
[1]
  fold induction at 0.001 µM: 21.2
  fold induction at 0.01 µM: 31.3
  fold induction at 0.1 µM: 81.5
  fold induction at 1 µM: 85.6
[2]
  fold induction at 0.001 µM: 21.6
  fold induction at 0.01 µM: 38.5
  fold induction at 0.1 µM: 66.2
  fold induction at 1 µM: 109

## CCC(C)c1cc(Oc2c(Br)cc(C=NOC(C(=O)O)c3ccccc3)cc2Br)ccc1O (centres unmarked) [Example 18, 2-(((3,5-dibromo-4-(3-(sec-butyl)-4-hydroxyphenoxy)benzylidene)amino)oxy)-2-phenylacetic acid]
[1]
  fold induction at 0.001 µM: 13.8
  fold induction at 0.01 µM: 20.8
  fold induction at 0.1 µM: 69.5
  fold induction at 1 µM: 122
[2]
  fold induction at 0.001 µM: 15.5
  fold induction at 0.01 µM: 36
  fold induction at 0.1 µM: 77
  fold induction at 1 µM: 90.4

## CCC(ON=Cc1cc(Br)c(Oc2ccc(O)c(C(C)CC)c2)c(Br)c1)C(=O)O (centres unmarked) [Example 19, 2-(((3,5-dibromo-4-(3-(sec-butyl)-4-hydroxyphenoxy)benzylidene)amino)oxy)butanoic acid]
[1]
  fold induction at 0.001 µM: 20.2
  fold induction at 0.01 µM: 69.7
  fold induction at 0.1 µM: 86.2
  fold induction at 1 µM: 90.8
[2]
  fold induction at 0.001 µM: 34.4
  fold induction at 0.01 µM: 80.8
  fold induction at 0.1 µM: 64.2
  fold induction at 1 µM: 109

## CC(C)(ON=Cc1cc(Br)c(Oc2ccc(O)c(-c3ccccc3)c2)c(Br)c1)C(=O)O [Example 20, 2-(((3,5-dibromo-4-((6-hydroxy-[1,1′-biphenyl]-3-yl)oxy)benzylidene)amino)oxy)-2-methyl propanoic acid]
[1]
  fold induction at 0.001 µM: 8.98
  fold induction at 0.01 µM: 14.8
  fold induction at 0.1 µM: 46
  fold induction at 1 µM: 98.6
[2]
  fold induction at 0.001 µM: 9.45
  fold induction at 0.01 µM: 13.1
  fold induction at 0.1 µM: 34.5
  fold induction at 1 µM: 74.3

## CCC(ON=Cc1cc(Br)c(Oc2ccc(O)c(-c3ccccc3)c2)c(Br)c1)C(=O)O (centres unmarked) [Example 21, 2-(((3,5-dibromo-4-((6-hydroxy-[1,1′-biphenyl]-3-yl)oxy)benzylidene)amino)oxy)butanoic acid]
[1]
  fold induction at 0.001 µM: 12.9
  fold induction at 0.01 µM: 18.2
  fold induction at 0.1 µM: 51.6
  fold induction at 1 µM: 63.8
[2]
  fold induction at 0.001 µM: 12.8
  fold induction at 0.01 µM: 16.6
  fold induction at 0.1 µM: 50.4
  fold induction at 1 µM: 105

## CC(C)(ON=Cc1cc(Br)c(Oc2ccc(O)c(Cc3ccccc3)c2)c(Br)c1)C(=O)O [Example 22, 2-(((4-(3-benzyl-4-hydroxyphenoxy)-3,5-dibromobenzylidene)amino)oxy)-2-methylpropanoic acid]
[1]
  fold induction at 0.001 µM: 9.09
  fold induction at 0.01 µM: 24.9
  fold induction at 0.1 µM: 44.9
  fold induction at 1 µM: 73.9
[2]
  fold induction at 0.001 µM: 12.1
  fold induction at 0.01 µM: 27.2
  fold induction at 0.1 µM: 48.6
  fold induction at 1 µM: 85.1

## CCC(C)c1cc(Oc2c(Cl)cc(C=NOC(C)C(=O)O)cc2Cl)ccc1O (centres unmarked) [Example 23, 2-(((4-(3-(sec-butyl)-4-hydroxyphenoxy)-3,5-dichlorobenzylidene)amino)oxy)propanoic acid]
[1]
  fold induction at 0.001 µM: 19.2
  fold induction at 0.01 µM: 53.1
  fold induction at 0.1 µM: 78.9
  fold induction at 1 µM: 90
[2]
  fold induction at 0.001 µM: 22.6
  fold induction at 0.01 µM: 48.2
  fold induction at 0.1 µM: 92.2
  fold induction at 1 µM: 138

## CC(ON=Cc1cc(Br)c(Oc2ccc(O)c(C(C)(C)C)c2)c(Br)c1)C(=O)O (centres unmarked) [Example 24, 2-(((3,5-dibromo-4-(3-(tert-butyl)-4-hydroxyphenoxy)benzylidene)amino)oxy)propanoic acid]
[1]
  fold induction at 0.001 µM: 16.6
  fold induction at 0.01 µM: 48.9
  fold induction at 0.1 µM: 105
  fold induction at 1 µM: 86.1
[2]
  fold induction at 0.001 µM: 18.5
  fold induction at 0.01 µM: 52.1
  fold induction at 0.1 µM: 102
  fold induction at 1 µM: 121

## CCc1cc(Oc2c(Br)cc(C=NOC(C)C(=O)O)cc2Br)ccc1O (centres unmarked) [Example 25, 2-(((3,5-dibromo-4-(3-ethyl-4-hydroxyphenoxy)benzylidene)amino)oxy)propanoic acid]
[1]
  fold induction at 0.001 µM: 11.5
  fold induction at 0.01 µM: 37.1
  fold induction at 0.1 µM: 59.9
  fold induction at 1 µM: 86.7
[2]
  fold induction at 0.001 µM: 13.8
  fold induction at 0.01 µM: 28.5
  fold induction at 0.1 µM: 79
  fold induction at 1 µM: 134

## CC(ON=Cc1cc(Br)c(Oc2ccc(O)c(C(=O)c3ccc(Cl)cc3)c2)c(Br)c1)C(=O)O (centres unmarked) [Example 26, 2-(((3,5-dibromo-4-(3-(4-chlorobenzoyl)-4-hydroxyphenoxy)benzylidene)amino)oxy)propanoic acid]
[1]
  fold induction at 0.001 µM: 9.62
  fold induction at 0.01 µM: 13.2
  fold induction at 0.1 µM: 41.2
  fold induction at 1 µM: 76.2
[2]
  fold induction at 0.001 µM: 12.1
  fold induction at 0.01 µM: 13.9
  fold induction at 0.1 µM: 34.9
  fold induction at 1 µM: 64.5

## CC(ON=Cc1cc(Br)c(Oc2ccc(O)c(C(O)c3ccc(Cl)cc3)c2)c(Br)c1)C(=O)O (centres unmarked) [Example 27, 2-(((3,5-dibromo-4-(3-((4-chlorophenyl)(hydroxy)methyl)-4-hydroxyphenoxy)benzylidene)amino)oxy)propanoic acid]
[1]
  fold induction at 0.001 µM: 10.1
  fold induction at 0.01 µM: 16.4
  fold induction at 0.1 µM: 29.1
  fold induction at 1 µM: 107
[2]
  fold induction at 0.001 µM: 13.2
  fold induction at 0.01 µM: 14.4
  fold induction at 0.1 µM: 45.2
  fold induction at 1 µM: 76.4

— patent publication US20110301200A1, “THYROID RECEPTOR LIGANDS” (CADILA HEALTHCARE LIMITED, priority 2008, published 2011)
